According to PubChem BioAssay (NCI):
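In this assay, cells in 96-well plates receive the compound at five concentrations for 48 hours. Endpoints are linearly interpolated between the surrounding concentrations. GI50 marks 50% less growth. TGI is the concentration that stops growth completely.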

Experiments:
Experiment in all cases: NCI tumour cell line growth inhibition, 48 h
786-0 renal = system: 786-0 renal
A498 renal = system: A498 renal
A549 NSCLC = system: A549 NSCLC
ACHN renal = system: ACHN renal
BT-549 breast = system: BT-549 breast
CAKI-1 renal = system: CAKI-1 renal
CCRF-CEM leukemia = system: CCRF-CEM leukemia
COLO 205 colon = system: COLO 205 colon
DU-145 prostate = system: DU-145 prostate
EKVX NSCLC = system: EKVX NSCLC
HCC-2998 colon = system: HCC-2998 colon
HCT-116 colon = system: HCT-116 colon
HCT-15 colon = system: HCT-15 colon
HL-60(TB) leukemia = system: HL-60(TB) leukemia
HOP-62 NSCLC = system: HOP-62 NSCLC
HOP-92 NSCLC = system: HOP-92 NSCLC
HS 578T breast = system: HS 578T breast
HT29 colon = system: HT29 colon
IGROV1 ovarian = system: IGROV1 ovarian
K-562 leukemia = system: K-562 leukemia
KM12 colon = system: KM12 colon
LOX IMVI melanoma = system: LOX IMVI melanoma
MALME-3M melanoma = system: MALME-3M melanoma
MCF7 breast = system: MCF7 breast
MDA-MB-231 breast = system: MDA-MB-231 breast
MDA-MB-468 breast = system: MDA-MB-468 breast
MOLT-4 leukemia = system: MOLT-4 leukemia
NCI-H226 lung = system: NCI-H226 lung
NCI-H23 lung = system: NCI-H23 lung
NCI-H460 lung = system: NCI-H460 lung
NCI-H522 lung = system: NCI-H522 lung
OVCAR-3 ovarian = system: OVCAR-3 ovarian
OVCAR-4 ovarian = system: OVCAR-4 ovarian
OVCAR-5 ovarian = system: OVCAR-5 ovarian
OVCAR-8 ovarian = system: OVCAR-8 ovarian
PC-3 prostate = system: PC-3 prostate
RPMI-8226 leukemia = system: RPMI-8226 leukemia
RXF 393 renal = system: RXF 393 renal
SF-268 CNS = system: SF-268 CNS
SF-295 CNS = system: SF-295 CNS
SF-539 CNS = system: SF-539 CNS
SK-MEL-28 melanoma = system: SK-MEL-28 melanoma
SK-MEL-5 melanoma = system: SK-MEL-5 melanoma
SK-OV-3 ovarian = system: SK-OV-3 ovarian
SN12C renal = system: SN12C renal
SNB-19 CNS = system: SNB-19 CNS
SNB-75 CNS = system: SNB-75 CNS
SR leukemia = system: SR leukemia
SW-620 colon = system: SW-620 colon
T-47D breast = system: T-47D breast
TK-10 renal = system: TK-10 renal
U251 CNS = system: U251 CNS
UACC-257 melanoma = system: UACC-257 melanoma
UACC-62 melanoma = system: UACC-62 melanoma
UO-31 renal = system: UO-31 renal

NC(=Nc1ccc(OCCCCCCCCn2cnnn2)cc1)c1ccccc1
GI50 (786-0 renal): 507 nM
TGI (786-0 renal): 30900 nM
GI50 (A498 renal): 17400 nM
TGI (A498 renal): 63400 nM
GI50 (A549 NSCLC): 586 nM
TGI (A549 NSCLC): > 100000 nM
GI50 (ACHN renal): 659 nM
TGI (ACHN renal): 62000 nM
GI50 (BT-549 breast): 836 nM
TGI (BT-549 breast): 18800 nM
GI50 (CAKI-1 renal): 324 nM
TGI (CAKI-1 renal): 46100 nM
GI50 (CCRF-CEM leukemia): 358 nM
TGI (CCRF-CEM leukemia): 38200 nM
GI50 (COLO 205 colon): 284 nM
TGI (COLO 205 colon): 1860 nM
GI50 (DU-145 prostate): 438 nM
TGI (DU-145 prostate): > 100000 nM
GI50 (EKVX NSCLC): 418 nM
TGI (EKVX NSCLC): > 100000 nM
GI50 (HCC-2998 colon): 494 nM
TGI (HCC-2998 colon): 11700 nM
GI50 (HCT-116 colon): 353 nM
TGI (HCT-116 colon): 13800 nM
GI50 (HCT-15 colon): 272 nM
TGI (HCT-15 colon): 15400 nM
GI50 (HL-60(TB) leukemia): 246 nM
TGI (HL-60(TB) leukemia): 846 nM
GI50 (HOP-62 NSCLC): 439 nM
TGI (HOP-62 NSCLC): 18900 nM
GI50 (HOP-92 NSCLC): 8000 nM
TGI (HOP-92 NSCLC): 59400 nM
GI50 (HS 578T breast): 307 nM
TGI (HS 578T breast): 48800 nM
GI50 (HT29 colon): 269 nM
TGI (HT29 colon): 2260 nM
GI50 (IGROV1 ovarian): 717 nM
TGI (IGROV1 ovarian): 21800 nM
GI50 (K-562 leukemia): 183 nM
TGI (K-562 leukemia): > 55100 nM
GI50 (KM12 colon): 423 nM
TGI (KM12 colon): > 73100 nM
GI50 (LOX IMVI melanoma): 488 nM
TGI (LOX IMVI melanoma): 13900 nM
GI50 (MALME-3M melanoma): 266 nM
TGI (MALME-3M melanoma): 18200 nM
GI50 (MCF7 breast): 157 nM
TGI (MCF7 breast): 18900 nM
GI50 (MDA-MB-231 breast): 439 nM
TGI (MDA-MB-231 breast): 9700 nM
GI50 (MDA-MB-468 breast): 167 nM
TGI (MDA-MB-468 breast): 695 nM
GI50 (MOLT-4 leukemia): 460 nM
TGI (MOLT-4 leukemia): > 72200 nM
GI50 (NCI-H226 lung): 321 nM
TGI (NCI-H226 lung): 4550 nM
GI50 (NCI-H23 lung): 436 nM
TGI (NCI-H23 lung): 20100 nM
GI50 (NCI-H460 lung): 343 nM
TGI (NCI-H460 lung): 19000 nM
GI50 (NCI-H522 lung): 201 nM
TGI (NCI-H522 lung): 720 nM
GI50 (OVCAR-3 ovarian): 398 nM
TGI (OVCAR-3 ovarian): > 52000 nM
GI50 (OVCAR-4 ovarian): 12400 nM
TGI (OVCAR-4 ovarian): > 100000 nM
GI50 (OVCAR-5 ovarian): 458 nM
TGI (OVCAR-5 ovarian): > 41500 nM
GI50 (OVCAR-8 ovarian): 490 nM
TGI (OVCAR-8 ovarian): > 64800 nM
GI50 (PC-3 prostate): 454 nM
TGI (PC-3 prostate): 97700 nM
GI50 (RPMI-8226 leukemia): 364 nM
TGI (RPMI-8226 leukemia): 19600 nM
GI50 (RXF 393 renal): 216 nM
TGI (RXF 393 renal): 752 nM
GI50 (SF-268 CNS): 6870 nM
TGI (SF-268 CNS): > 79700 nM
GI50 (SF-295 CNS): 281 nM
TGI (SF-295 CNS): 12400 nM
GI50 (SF-539 CNS): 223 nM
TGI (SF-539 CNS): 606 nM
GI50 (SK-MEL-28 melanoma): 783 nM
TGI (SK-MEL-28 melanoma): > 49200 nM
GI50 (SK-MEL-5 melanoma): 282 nM
TGI (SK-MEL-5 melanoma): 1420 nM
GI50 (SK-OV-3 ovarian): 439 nM
TGI (SK-OV-3 ovarian): 35900 nM
GI50 (SN12C renal): 472 nM
TGI (SN12C renal): 18200 nM
GI50 (SNB-19 CNS): 594 nM
TGI (SNB-19 CNS): > 100000 nM
GI50 (SNB-75 CNS): 400 nM
TGI (SNB-75 CNS): 50200 nM
GI50 (SR leukemia): 75.2 nM
TGI (SR leukemia): > 50500 nM
GI50 (SW-620 colon): 352 nM
TGI (SW-620 colon): > 100000 nM
GI50 (T-47D breast): 392 nM
TGI (T-47D breast): 63200 nM
GI50 (TK-10 renal): 3060 nM
TGI (TK-10 renal): > 83700 nM
GI50 (U251 CNS): 383 nM
TGI (U251 CNS): > 63500 nM
GI50 (UACC-257 melanoma): 8360 nM
TGI (UACC-257 melanoma): > 60000 nM
GI50 (UACC-62 melanoma): 442 nM
TGI (UACC-62 melanoma): 19900 nM
GI50 (UO-31 renal): 555 nM
TGI (UO-31 renal): 40800 nM
